Test results: PubChem BioAssay AID1259407 (Chemical Carcinogenesis Research Information System (CCRIS), 2018)
Activity calls are given as the source filed them. The rule behind the calls is not given here.

System: CCRIS mutagenicity, Ames/micronucleus/aberration tests
Assay: CCRIS mutagenicity studies
[1] = Test System: AMES SALMONELLA TYPHIMURIUM, Strain/Indicator: TA104, Metabolic Activation: NONE, Method: PREINCUBATION
[2] = Test System: AMES SALMONELLA TYPHIMURIUM, Strain/Indicator: TA98, Metabolic Activation: NONE, Method: STANDARD PLATE
[3] = Test System: AMES SALMONELLA TYPHIMURIUM, Strain/Indicator: TA102, Metabolic Activation: NONE, Method: STANDARD PLATE
[4] = Test System: AMES SALMONELLA TYPHIMURIUM, Strain/Indicator: TA97, Metabolic Activation: NONE, Method: STANDARD PLATE

## Nc1nc(N)nc(-c2ccccc2)n1
Test System: AMES SALMONELLA TYPHIMURIUM, Strain/Indicator: TA98, Metabolic Activation: NONE, Method: PREINCUBATION
  mutagenic call: inactive; negative
Test System: AMES SALMONELLA TYPHIMURIUM, Strain/Indicator: TA98, Metabolic Activation: RAT, LIVER, S-9, PHENOBARBITAL AND BETA-NAPHTHOFLAVONE, Method: PREINCUBATION
  mutagenic call: inactive; negative
Test System: AMES SALMONELLA TYPHIMURIUM, Strain/Indicator: TA100, Metabolic Activation: NONE, Method: PREINCUBATION
  mutagenic call: inactive; negative
Test System: AMES SALMONELLA TYPHIMURIUM, Strain/Indicator: TA100, Metabolic Activation: RAT, LIVER, S-9, PHENOBARBITAL AND BETA-NAPHTHOFLAVONE, Method: PREINCUBATION
  mutagenic call: inactive; negative
Test System: AMES SALMONELLA TYPHIMURIUM, Strain/Indicator: TA102, Metabolic Activation: NONE, Method: PREINCUBATION
  mutagenic call: inactive; negative
Test System: AMES SALMONELLA TYPHIMURIUM, Strain/Indicator: TA102, Metabolic Activation: RAT, LIVER, S-9, PHENOBARBITAL AND BETA-NAPHTHOFLAVONE, Method: PREINCUBATION
  mutagenic call: inactive; negative
[1]
  mutagenic call: inactive; negative
Test System: AMES SALMONELLA TYPHIMURIUM, Strain/Indicator: TA104, Metabolic Activation: RAT, LIVER, S-9, PHENOBARBITAL AND BETA-NAPHTHOFLAVONE, Method: PREINCUBATION
  mutagenic call: inactive; negative
Test System: AMES SALMONELLA TYPHIMURIUM, Strain/Indicator: TA1535, Metabolic Activation: NONE, Method: PREINCUBATION
  mutagenic call: inactive; negative
Test System: AMES SALMONELLA TYPHIMURIUM, Strain/Indicator: TA1535, Metabolic Activation: RAT, LIVER, S-9, PHENOBARBITAL AND BETA-NAPHTHOFLAVONE, Method: PREINCUBATION
  mutagenic call: inactive; negative
Test System: AMES SALMONELLA TYPHIMURIUM, Strain/Indicator: TA1537, Metabolic Activation: NONE, Method: PREINCUBATION
  mutagenic call: inactive; negative
Test System: AMES SALMONELLA TYPHIMURIUM, Strain/Indicator: TA1537, Metabolic Activation: RAT, LIVER, S-9, SODIUM PHENOBARBITAL AND 5,6-BENZOFLAVONE, Method: PREINCUBATION
  mutagenic call: inactive; negative
Test System: E. COLI, Strain/Indicator: WP2UVRA/PKM101, Metabolic Activation: NONE, Method: PREINCUBATION
  mutagenic call: inactive; negative
Test System: E. COLI, Strain/Indicator: WP2UVRA/PKM101, Metabolic Activation: RAT, LIVER, S-9, SODIUM PHENOBARBITAL AND 5,6-BENZOFLAVONE, Method: PREINCUBATION
  mutagenic call: inactive; negative
Test System: E. COLI, Strain/Indicator: WP2UVRA, Metabolic Activation: NONE, Method: PREINCUBATION
  mutagenic call: inactive; negative
Test System: E. COLI, Strain/Indicator: WP2UVRA, Metabolic Activation: RAT, LIVER, S-9, PHENOBARBITAL AND BETA-NAPHTHOFLAVONE, Method: PREINCUBATION
  mutagenic call: inactive; negative

## ClCc1cccnc1
[2]
  mutagenic call: inactive; negative
Test System: AMES SALMONELLA TYPHIMURIUM, Strain/Indicator: TA98, Metabolic Activation: RAT, LIVER, S-9, AROCLOR 1254, Method: STANDARD PLATE
  mutagenic call: inactive; negative
Test System: AMES SALMONELLA TYPHIMURIUM, Strain/Indicator: TA100, Metabolic Activation: RAT, LIVER, S-9, AROCLOR 1254, Method: STANDARD PLATE
  mutagenic call: active; positive
[3]
  mutagenic call: inactive; negative
Test System: AMES SALMONELLA TYPHIMURIUM, Strain/Indicator: TA102, Metabolic Activation: RAT, LIVER, S-9, AROCLOR 1254, Method: STANDARD PLATE
  mutagenic call: inactive; negative
Test System: E. COLI, Strain/Indicator: WP2 UVRA, Metabolic Activation: MOUSE, LIVER, S-9, AROCLOR 1254, Method: STANDARD PLATE
  mutagenic call: inactive; negative
Test System: E. COLI, Strain/Indicator: WP2 UVRA, Metabolic Activation: NONE, Method: STANDARD PLATE
  mutagenic call: inactive; negative
Test System: E. COLI, Strain/Indicator: WP2 UVRA, Metabolic Activation: RAT, LIVER, S-9, AROCLOR 1254, Method: STANDARD PLATE
  mutagenic call: inactive; negative
Test System: E. COLI, Strain/Indicator: WP2 UVRA, Metabolic Activation: RAT, LIVER, S-9, Method: STANDARD PLATE
  mutagenic call: inactive; negative
Test System: MOUSE LYMPHOMA, Strain/Indicator: L5178Y (TK+/TK-), Metabolic Activation: NONE, Method: SUSPENSION/PLATE
  mutagenic call: active; positive
Test System: MOUSE LYMPHOMA, Strain/Indicator: L5178Y (TK+/TK-), Metabolic Activation: RAT, LIVER, S-9, AROCLOR 1254, Method: SUSPENSION/PLATE
  mutagenic call: active; positive

## CC(=O)N[C@@H](CS)C(=O)O
Test System: AMES SALMONELLA TYPHIMURIUM, Strain/Indicator: TA92, Metabolic Activation: NONE, Method: STANDARD PLATE
  mutagenic call: inactive; negative
Test System: AMES SALMONELLA TYPHIMURIUM, Strain/Indicator: TA92, Metabolic Activation: RAT, KIDNEY, S-9, Method: STANDARD PLATE
  mutagenic call: active; positive
[4]
  mutagenic call: inactive; negative
Test System: AMES SALMONELLA TYPHIMURIUM, Strain/Indicator: TA97, Metabolic Activation: RAT, KIDNEY, S-9, Method: STANDARD PLATE
  mutagenic call: active; positive
[3]
  mutagenic call: inactive; negative
Test System: AMES SALMONELLA TYPHIMURIUM, Strain/Indicator: TA104, Metabolic Activation: NONE, Method: STANDARD PLATE
  mutagenic call: inactive; negative
Test System: AMES SALMONELLA TYPHIMURIUM, Strain/Indicator: TA104, Metabolic Activation: RAT, KIDNEY, S-9, Method: STANDARD PLATE
  mutagenic call: active; positive
Test System: CHINESE HAMSTER V-79, Strain/Indicator: V-79/6-THIOGUANINE, Metabolic Activation: NONE, Method: STANDARD PLATE
  mutagenic call: inactive; negative

## ClCC(CCl)(CCl)CCl
[4]
  mutagenic call: inactive; negative
[2]
  mutagenic call: inactive; negative
Test System: AMES SALMONELLA TYPHIMURIUM, Strain/Indicator: TA98, Metabolic Activation: RAT, LIVER, S-9, AROCLOR, Method: STANDARD PLATE
  mutagenic call: inactive; negative
Test System: AMES SALMONELLA TYPHIMURIUM, Strain/Indicator: TA100, Metabolic Activation: NONE, Method: STANDARD PLATE
  mutagenic call: inactive; negative
Test System: AMES SALMONELLA TYPHIMURIUM, Strain/Indicator: TA100, Metabolic Activation: RAT, LIVER, S-9, AROCLOR, Method: STANDARD PLATE
  mutagenic call: inactive; negative
Test System: AMES SALMONELLA TYPHIMURIUM, Strain/Indicator: TA1535, Metabolic Activation: NONE, Method: STANDARD PLATE
  mutagenic call: inactive; negative
Test System: AMES SALMONELLA TYPHIMURIUM, Strain/Indicator: TA1537, Metabolic Activation: NONE, Method: STANDARD PLATE
  mutagenic call: inactive; negative
Test System: AMES SALMONELLA TYPHIMURIUM, Strain/Indicator: TA1538, Metabolic Activation: NONE, Method: STANDARD PLATE
  mutagenic call: inactive; negative
Test System: AMES SALMONELLA TYPHIMURIUM, Strain/Indicator: TA2637, Metabolic Activation: NONE, Method: STANDARD PLATE
  mutagenic call: inactive; negative

## Oc1ccc(O)c2ccccc12
[1]
  mutagenic call: active; positive
Test System: AMES SALMONELLA TYPHIMURIUM, Strain/Indicator: TA2637, Metabolic Activation: RAT, LIVER, S-9, PHENOBARBITAL AND 5,6-BENZOFLAVONE, Method: PREINCUBATION
  mutagenic call: active; positive

## CCOC(=O)C(=NNc1ccc(-c2ccc(NN=C(C(=O)OCC)C(=O)OCC)c(Cl)c2)cc1Cl)C(=O)OCC
Test System: AMES SALMONELLA TYPHIMURIUM, Strain/Indicator: TA98, Metabolic Activation: HAMSTER, LIVER, S-9, Method: PREINCUBATION (PRIVAL METHOD)
  mutagenic call: inactive; negative
Test System: AMES SALMONELLA TYPHIMURIUM, Strain/Indicator: TA98, Metabolic Activation: NONE, Method: PREINCUBATION (PRIVAL METHOD)
  mutagenic call: inactive; negative
